The values below come from publication PMC2656571 (Journal of medicinal chemistry, 2008).

Type in all cases: cell-based
For one data set, the system named is HIV-1 IIIB. Description: Inhibition of HIV-1 IIIB replication in MT-2 cells. The settings on record: CC50 (MT-2 cells) / EC50 (p24 production).
In the next data set the test system is MT-2 cells. Description: In vitro cytotoxicity on MT-2 cells. The note with it: human.
Data set [1] relates to HIV-1-mediated cell-cell fusion. Kind of data set: HIV-1-mediated cell-cell fusion. The settings on record: data not shown.
A further data set deals with HIV-1. Kind of data set: HIV-1-mediated cytopathic effect. The settings on record: data not shown.

Take `O=C(O)c1cc(-n2cccc2)ccc1O` [Compound A2, N-(3-Carboxy-4-hydroxy)phenylpyrrole]: in the data set on HIV-1 IIIB, the “SI (selectivity index, CC50/EC50)” value was above 50.99. For the same compound, the 50% cytotoxic concentration (CC50) (as a rule, the concentration that lowers cell viability or growth by half) at 4 days in the data set on MT-2 cells was above 493 µM.

As to `O=C(O)c1ccc(-n2cccc2)cc1` [Compound A6, N-(4-Carboxy)phenylpyrrole], the “SI (selectivity index, CC50/EC50)” value in the data set on HIV-1 IIIB was above 7.72. This compound came in with a CC50 at 4 days in the data set with MT-2 cells above 535 µM.

Regarding `O=C(O)Cc1ccc(-n2cccc2)cc1` [Compound A7, N-(4-Carboxymethene)phenylpyrrole], the “SI (selectivity index, CC50/EC50)” value in the data set on HIV-1 IIIB is above 1.34. This compound also returned a CC50 at 4 days in the data set with MT-2 cells above 498 µM.

Regarding `O=C(O)c1ccc(Cn2cccc2)cc1` [Compound A9, N-(4-Carboxy)benzylpyrrole], the “SI (selectivity index, CC50/EC50)” value with HIV-1 IIIB is listed as above 7.78. The same compound registered a CC50 at 4 days in the data set with MT-2 cells above 498 µM.

Compound `O=C(O)Cc1ccc(Cn2cccc2)cc1` [Compound A10, N-(4-Carboxymethene)benzylpyrrole] had a CC50 at 4 days in the data set with MT-2 cells above 465 µM.

For `Cc1ccc(C)n1-c1ccc(O)c(C(=O)O)c1` [Compound A12, N-(3-Carboxy-4-hydroxy)phenyl-2,5-dimethylpyrrole], the “Inhibition of HIV-1-mediated cell-cell fusion” value in data set [1] is “effectively inhibited”. The “Inhibition of HIV-1-mediated cytopathic effect (CPE)” value in the data set with HIV-1 is “effectively inhibited”.

Consider `Cc1ccc(C)n1-c1ccc(Cl)cc1C(=O)O` [Compound A18, N-(4-Chloro-2-carboxy)phenyl-2,5-dimethylpyrrole], for which, in the data set on HIV-1 IIIB, the “SI (selectivity index, CC50/EC50)” value is on record as above 46.73. Moreover, the 50% cytotoxic concentration (CC50) at 4 days with MT-2 cells is above 400 µM.

In the case of `Cc1ccc(C)n1Cc1ccc(C(=O)O)cc1` [Compound A19, N-(4-Carboxy)benzyl-2,5-dimethylpyrrole], the “SI (selectivity index, CC50/EC50)” value in the data set on HIV-1 IIIB stood at 19.20. In the data set with MT-2 cells, the 50% cytotoxic concentration (CC50) at 4 days is 299 µM.

For `O=C(O)c1ccc(-c2noc(CCl)n2)cc1` [Compound B6, 3-(4-Carboxy)phenyl-5-chloromethyl-1,2,4-oxadiazole], in the data set with HIV-1 IIIB, the “SI (selectivity index, CC50/EC50)” value is given as above 16.

As to `O=C(O)c1ccc(-c2noc(C(F)(F)F)n2)cc1` [Compound B10, 3-(4-Carboxyphenyl)-5-(trifluoromethyl)-1,2,4-oxadiazole], the “SI (selectivity index, CC50/EC50)” value in the data set on HIV-1 IIIB was above 16.
